Data on 15 molecules can be found in ChEMBL document CHEMBL1159114, “Novel bis-arylsulfonamides and aryl sulfonimides as inactivators of plasminogen activator inhibitor-1 (PAI-1)” (Bioorg Med Chem Lett, 2010).

In one experiment the target is Antithrombin-III (Homo sapiens, UniProt P01008). As to the kind of experiment: Inhibition of antithrombin-3 assessed as residual alpha-thrombin activity.
Experiment [1] deals with T1, Plasminogen activator inhibitor 1 (Homo sapiens, UniProt P05121). The experiment can be described thus: Inhibition of human recombinant PAI1 assessed as rate of AMC release after 30 mins.
T1 sequence (P05121 whole entry): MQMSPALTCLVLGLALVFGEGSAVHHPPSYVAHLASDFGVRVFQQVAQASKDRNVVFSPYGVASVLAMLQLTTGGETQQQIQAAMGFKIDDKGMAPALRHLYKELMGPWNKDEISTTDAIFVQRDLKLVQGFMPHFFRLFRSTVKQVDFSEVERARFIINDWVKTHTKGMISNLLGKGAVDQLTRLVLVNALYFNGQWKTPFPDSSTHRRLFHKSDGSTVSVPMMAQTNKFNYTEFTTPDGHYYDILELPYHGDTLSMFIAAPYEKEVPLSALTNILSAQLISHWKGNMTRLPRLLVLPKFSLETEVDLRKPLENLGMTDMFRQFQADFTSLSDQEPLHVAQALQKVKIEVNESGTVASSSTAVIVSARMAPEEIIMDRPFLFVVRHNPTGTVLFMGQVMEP
Experiment [2] concerns the target T1, Plasminogen activator inhibitor 1. The experiment can be described thus: Inhibition of human recombinant PAI1 assessed as rate of AMC release at 300 uM after 30 mins.

Chain of Antithrombin-III (P01008 whole entry): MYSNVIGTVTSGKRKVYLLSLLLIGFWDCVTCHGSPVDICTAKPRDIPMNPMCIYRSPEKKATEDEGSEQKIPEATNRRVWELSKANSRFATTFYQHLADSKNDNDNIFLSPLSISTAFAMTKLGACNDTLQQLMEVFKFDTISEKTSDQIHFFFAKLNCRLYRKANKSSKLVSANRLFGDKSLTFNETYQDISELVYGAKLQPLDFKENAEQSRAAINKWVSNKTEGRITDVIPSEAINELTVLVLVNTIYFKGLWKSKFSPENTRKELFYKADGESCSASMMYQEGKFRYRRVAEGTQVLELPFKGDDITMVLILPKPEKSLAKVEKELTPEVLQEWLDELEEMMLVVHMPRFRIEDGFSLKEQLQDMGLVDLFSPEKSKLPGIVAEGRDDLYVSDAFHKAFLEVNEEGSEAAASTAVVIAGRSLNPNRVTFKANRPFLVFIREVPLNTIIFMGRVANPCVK

Take `CCN(CCN(CC)S(=O)(=O)c1cc(F)c(O)c(F)c1)S(=O)(=O)c1cc(F)c(O)c(F)c1`: the concentration for half-maximal inhibition (IC50) (as a rule, the concentration that inhibits the measured activity by half) at Antithrombin-III is more than 3000 µM; in experiment [1], 128 µM.
In the same order, the values of `CCN(CCN(CC)S(=O)(=O)c1ccc(OC)c(OC)c1)S(=O)(=O)c1ccc(OC)c(OC)c1` are more than 300 µM and more than 300 µM.
In the same order, the values of `CCN(CCN(CC)S(=O)(=O)c1ccc(O)c(O)c1)S(=O)(=O)c1ccc(O)c(O)c1` are more than 1000 µM and 9.32 µM.
In the same order, the values of `O=S(=O)(NCCCCCCNS(=O)(=O)c1ccc(O)c(O)c1)c1ccc(O)c(O)c1` are more than 3000 µM and 1380 µM.
As to `O=S(=O)(c1ccc(O)c(O)c1)N(Cc1ccccc1)S(=O)(=O)c1ccc(O)c(O)c1`, the half-inhibitory concentration (IC50) at Antithrombin-III is more than 300 µM; in experiment [1], 4.82 µM.
In the same order, the values of `CCCCCCN(S(=O)(=O)c1ccc(O)c(O)c1)S(=O)(=O)c1ccc(O)c(O)c1` are more than 300 µM and 0.284 µM.
In the same order, the values of `O=S(=O)(NCCNS(=O)(=O)c1ccc(O)c(O)c1)c1ccc(O)c(O)c1` are more than 3000 µM and 518 µM.
In the same order, the values of `CCCN(S(=O)(=O)c1ccc(O)c(O)c1)S(=O)(=O)c1ccc(O)c(O)c1` are more than 1000 µM and 2.67 µM.
`O=S(=O)(NCCCCNS(=O)(=O)c1ccc(O)c(O)c1)c1ccc(O)c(O)c1`: the 50% inhibitory concentration (IC50) (at Antithrombin-III; in experiment [1]) was more than 3000 µM in each case.
As to `CCN(CCN(CC)S(=O)(=O)c1cc(O)ccc1O)S(=O)(=O)c1cc(O)ccc1O`, the 50% inhibitory concentration (IC50) (at Antithrombin-III; in experiment [1]) was more than 300 µM throughout. Also, in experiment [2], the inhibition (commonly the change of the read-out against control, counted positive when it falls) was less than 30%.
Regarding `O=S(=O)(c1ccc(O)c(O)c1)N1CCN(S(=O)(=O)c2ccc(O)c(O)c2)CC1`, the IC50 (on Antithrombin-III; in experiment [1]) was more than 300 µM throughout. Further, in experiment [2], the inhibition is less than 30%.
With `CCN(CCN(CC)S(=O)(=O)c1cccc(O)c1)S(=O)(=O)c1cccc(O)c1`, the IC50 on Antithrombin-III was more than 1000 µM; in experiment [1], 343 µM.
In the same order, the values of `CCN(CCN(CC)S(=O)(=O)c1ccccc1)S(=O)(=O)c1ccccc1` are more than 300 µM and more than 300 µM.
In the same order, the values of `O=S(=O)(c1ccc(O)c(O)c1)N(C1CCCCC1)S(=O)(=O)c1ccc(O)c(O)c1` are more than 300 µM and 0.594 µM.
In the same order, the values of `CCN(CCN(CC)S(=O)(=O)c1ccc(O)cc1)S(=O)(=O)c1ccc(O)cc1` are more than 300 µM and more than 300 µM.
